The text below walks through data of patent publication US10532977B2, “Small molecule inhibitors of protein tyrosine phosphatases and uses thereof” (Indiana University Research and Technology Corporation, priority 2015, dated 2020).

Entries after “also recorded” stand apart in the source; their conditions may differ.

Assay [1] deals with M. tuberculosis H37Rv. The assay is described as follows: Microplate Alamar Blue assay (MABA) MIC, H37Rv. In kind it is cell-based, Mycobacterium tuberculosis. On the technique in general: Resazurin is reduced to fluorescent resorufin, in cell work by metabolically active cells.
Assay [2] has as its system Mtb-infected macrophages. The assay is described as follows: Macrophage assay, growth of M. tuberculosis in IFN-γ activated J774 macrophages. The class given is cell-based, Mycobacterium tuberculosis. Conditions: J774A.1 macrophages.
Assay [3] deals with T1, SHP2 (Homo sapiens, UniProt Q06124).
T1 sequence (Q06124 224-528): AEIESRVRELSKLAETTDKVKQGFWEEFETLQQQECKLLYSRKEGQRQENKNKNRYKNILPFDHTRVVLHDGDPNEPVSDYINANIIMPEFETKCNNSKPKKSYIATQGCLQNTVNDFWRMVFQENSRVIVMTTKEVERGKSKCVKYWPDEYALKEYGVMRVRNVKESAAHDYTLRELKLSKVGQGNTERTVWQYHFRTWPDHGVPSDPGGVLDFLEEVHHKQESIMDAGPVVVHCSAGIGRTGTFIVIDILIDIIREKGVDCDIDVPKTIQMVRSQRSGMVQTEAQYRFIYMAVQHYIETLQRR
The assay is described as follows: SHP2 inhibition, pNPP substrate. In kind it is biochemical.

Assay [4] has as its system EGF-mediated ERK1/2 phosphorylation. The assay can be described thus: EGF-mediated ERK1/2 phosphorylation, immunoblot, H1975 cells. The class given is cell-based, human. The conditions noted are these: compound 7 at 40 μM. The protocol:
Cell proliferation and immunoblot analysis. Human non-small cell lung carcinoma cell line H1975 was cultured at 37° C. and 5% CO2 in RPMI-1640 (Corning) supplemented with 10% fetal bovine serum (HyClone). Human breast cancer cell line MDA-MB-231 was cultured in DMEM supplemented with 10% fetal bovine serum. For cell proliferation assay, 2˜3×10^3 cells were seeded in each well of 96-well plates. After treating cells with compounds for 2 days, cells were incubated with 50 µg/ml MTT (3-(4,5-Dimethylthiazol-2-yl)-2,5-diphenyltetrazolium bromide) for ˜3-4 hours. Then, the culture medium was removed, DMSO was added to dissolve the formazan crystals. Wells containing only media were used for background correction. The optical density was measured spectrophotometrically at 540 nm. For signaling analysis, cells were serum-starved overnight followed by treatment with vehicle or compounds for 3 hours, and then either left un-stimulated or stimulated with 5 μg/ml EGF or 10 nM PMA (Sigma) for indicated time. Cells were lysed and the lysates were electrophoresed on a 10% polyacrylamide gel, and then transferred to a nitrocellulose membrane, and probed with anti-phospho-ERK1/2 and anti-ERK1/2 (Cell Signaling) antibodies followed by incubation with horseradish peroxidase-conjugated secondary antibodies. […]
(In general: In western blotting, separated proteins are transferred to a membrane and probed.)

The target in assay [5] is T2, PTPH1 (Homo sapiens, UniProt P26045).
T2 sequence (P26045 1-913): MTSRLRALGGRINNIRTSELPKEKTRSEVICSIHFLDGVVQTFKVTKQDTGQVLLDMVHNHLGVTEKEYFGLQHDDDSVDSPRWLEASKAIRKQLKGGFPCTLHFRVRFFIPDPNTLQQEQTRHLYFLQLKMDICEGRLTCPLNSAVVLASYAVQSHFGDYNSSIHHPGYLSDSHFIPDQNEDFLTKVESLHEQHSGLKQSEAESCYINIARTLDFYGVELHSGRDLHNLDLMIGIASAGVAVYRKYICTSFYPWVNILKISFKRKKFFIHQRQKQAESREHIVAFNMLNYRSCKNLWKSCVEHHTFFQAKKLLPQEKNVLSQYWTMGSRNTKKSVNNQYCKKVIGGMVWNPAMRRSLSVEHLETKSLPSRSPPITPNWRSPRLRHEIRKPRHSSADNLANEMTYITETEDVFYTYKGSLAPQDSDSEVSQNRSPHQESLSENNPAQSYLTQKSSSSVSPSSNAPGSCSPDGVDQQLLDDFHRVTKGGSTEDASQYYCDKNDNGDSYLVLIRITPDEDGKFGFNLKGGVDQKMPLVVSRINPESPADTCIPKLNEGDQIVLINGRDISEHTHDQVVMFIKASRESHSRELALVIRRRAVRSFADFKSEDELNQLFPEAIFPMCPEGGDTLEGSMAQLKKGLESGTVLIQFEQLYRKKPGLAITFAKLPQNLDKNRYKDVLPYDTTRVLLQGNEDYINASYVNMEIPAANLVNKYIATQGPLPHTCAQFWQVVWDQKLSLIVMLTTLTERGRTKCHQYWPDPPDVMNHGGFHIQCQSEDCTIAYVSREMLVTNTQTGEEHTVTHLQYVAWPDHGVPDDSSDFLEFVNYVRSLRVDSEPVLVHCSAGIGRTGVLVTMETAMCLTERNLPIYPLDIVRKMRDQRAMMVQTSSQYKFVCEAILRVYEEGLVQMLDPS
The assay can be described thus: PTPH1 inhibition, pNPP substrate. In kind it is biochemical. The conditions noted are these: pH 7.

Assay [6] concerns the target PTP1B (Homo sapiens, UniProt P18031). The assay is described as follows: PTP1B inhibition, pNPP substrate. The class given is biochemical. The conditions noted are these: pNPP at Km, pH 7.0, 25° C.
The target of assay [7] is TcPTP (Homo sapiens, UniProt P17706). The assay is described as follows: TcPTP inhibition, pNPP substrate. In kind it is biochemical. The conditions noted are these: pH 7.
Assay [8] addresses LYP (Homo sapiens, UniProt Q9Y2R2). The assay can be described thus: LYP inhibition, pNPP substrate. The class given is biochemical. The conditions noted are these: pNPP at Km, pH 7.0, 25° C.
In assay [9] the target is PEST (Homo sapiens, UniProt Q05209). The assay can be described thus: PEST inhibition, pNPP substrate. The class given is biochemical. Conditions: pH 7.
The target in assay [10] is HePTP (Homo sapiens, UniProt P35236). The assay can be described thus: HePTP inhibition, pNPP substrate. The class given is biochemical. The conditions noted are these: pNPP at Km, pH 7.0, 25° C.
Assay [11] has as its target FAP1 (Homo sapiens, UniProt Q12923). The assay can be described thus: FAP1 inhibition, pNPP substrate. In kind it is biochemical. Conditions: pH 7.
Assay [12] deals with VHR (Homo sapiens, UniProt P51452). The assay can be described thus: VHR inhibition, pNPP substrate. The class given is biochemical. The conditions noted are these: pNPP at Km, pH 7.0, 25° C.
Assay [13] deals with T3, Ssu72 (Homo sapiens, UniProt Q9NP77).
T3 construct: made in house
The assay can be described thus: Ssu72 inhibition, pNPP substrate. The class given is biochemical. Conditions: pH 7.

Assay [14] addresses mPTPA (Mycobacterium tuberculosis, UniProt P9WIA1). The class given is biochemical.
The target in assay [15] is T4, Laforin (Homo sapiens, UniProt O95278).
T4 sequence (O95278 1-331): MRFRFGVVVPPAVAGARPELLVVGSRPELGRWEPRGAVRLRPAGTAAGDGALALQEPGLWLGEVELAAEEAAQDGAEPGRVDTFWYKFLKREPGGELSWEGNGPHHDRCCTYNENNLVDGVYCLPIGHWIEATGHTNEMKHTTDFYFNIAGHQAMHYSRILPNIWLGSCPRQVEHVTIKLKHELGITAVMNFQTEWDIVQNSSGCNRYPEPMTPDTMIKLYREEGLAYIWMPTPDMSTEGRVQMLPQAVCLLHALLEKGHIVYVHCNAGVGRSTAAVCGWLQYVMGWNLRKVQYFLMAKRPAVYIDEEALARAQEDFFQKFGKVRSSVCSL
The assay can be described thus: Laforin inhibition, pNPP substrate. The class given is biochemical.

In assay [16] the target is mPTPB (Mycobacterium tuberculosis, UniProt I6WXK4). The assay can be described thus: biochemical.
Assay [17] deals with LMWPTP. The assay is described as follows: Insulin signaling in HepG2 cells. Conditions: pretreated 1 hour, 5 nM insulin 5 minutes. In kind it is cell-based, human. Here is the method: To assess the effects of L335N15 in insulin signaling pathway, HepG2 cells were pretreated with L335N15 for 1 hour and were subsequently stimulated with 5 nM insulin for 5 minutes. […] Consistent with IR activation, downstream Akt phosphorylation (Ser473) was increased. […] Accordingly, LMWPTP inhibitors such as L335N15 described herein can be used to develop agents for the treatment of type 2 diabetes and insulin resistance.

The target of assay [18] is SHP2 (Homo sapiens, UniProt Q06124). The assay is described as follows: Covalent adduct formation with SHP2, QTOF ESI-MS / LC-MS. The conditions noted are these: pH 7, cefsulodin 3 hours, PVS 10 minutes. The protocol:
Characterization of cefsulodin-mediated SHP2 inhibition by Q-TOF ESI-MS, LC-MS, and HPLC. Agilent 6520 Accurate-Mass was used for the Q-TOF ESI-MS studies. Water and acetonitrile (both containing 0.1% formic acid) were used as eluent (80% water, flow 50 μL/min, run time 5 minutes). ESI positive mode was used with mass range from 300 to 1700, the gas temperature was 325° C., and vaporizer temperature was: […] The sample was adjusted to have a concentration at 0.1 mg/mL, the injection volume of each sample was 1 μL. Mass hunter software was used for protein deconvolution data analysis to calculate the molecular weight of the protein.
Agilent Technologies 6130 quadrupole LC-MS instrument was used for the LC-MS studies. A C18 reserved phase column (phenomenex, 50×4.6 mm) was used as stationary phase, water and methanol (both containing 0.1% formic acid) were used as mobile phase (gradient: 0-100% methanol, flow 0 8 ml/min, run time 15 minutes), and UV absorbance at the fixed wavelength of 254 nm and positive and negative ESI-MS data were recorded. The sample was adjusted to have a concentration at 0.1 mg/mL, and the injection volume of each sample was 0.2 μL. The retention time and corresponding ESI-MS data were used as identity of molecules.

mPTPB, sequence (I6WXK4 whole entry): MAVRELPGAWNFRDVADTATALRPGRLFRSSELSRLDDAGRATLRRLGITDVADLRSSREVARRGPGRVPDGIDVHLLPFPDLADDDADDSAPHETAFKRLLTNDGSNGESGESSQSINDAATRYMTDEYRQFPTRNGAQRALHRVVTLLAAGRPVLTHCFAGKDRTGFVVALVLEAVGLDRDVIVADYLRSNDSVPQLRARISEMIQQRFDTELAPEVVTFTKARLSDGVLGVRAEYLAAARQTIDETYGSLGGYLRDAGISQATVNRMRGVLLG
FAP1, sequence (Q12923 whole entry): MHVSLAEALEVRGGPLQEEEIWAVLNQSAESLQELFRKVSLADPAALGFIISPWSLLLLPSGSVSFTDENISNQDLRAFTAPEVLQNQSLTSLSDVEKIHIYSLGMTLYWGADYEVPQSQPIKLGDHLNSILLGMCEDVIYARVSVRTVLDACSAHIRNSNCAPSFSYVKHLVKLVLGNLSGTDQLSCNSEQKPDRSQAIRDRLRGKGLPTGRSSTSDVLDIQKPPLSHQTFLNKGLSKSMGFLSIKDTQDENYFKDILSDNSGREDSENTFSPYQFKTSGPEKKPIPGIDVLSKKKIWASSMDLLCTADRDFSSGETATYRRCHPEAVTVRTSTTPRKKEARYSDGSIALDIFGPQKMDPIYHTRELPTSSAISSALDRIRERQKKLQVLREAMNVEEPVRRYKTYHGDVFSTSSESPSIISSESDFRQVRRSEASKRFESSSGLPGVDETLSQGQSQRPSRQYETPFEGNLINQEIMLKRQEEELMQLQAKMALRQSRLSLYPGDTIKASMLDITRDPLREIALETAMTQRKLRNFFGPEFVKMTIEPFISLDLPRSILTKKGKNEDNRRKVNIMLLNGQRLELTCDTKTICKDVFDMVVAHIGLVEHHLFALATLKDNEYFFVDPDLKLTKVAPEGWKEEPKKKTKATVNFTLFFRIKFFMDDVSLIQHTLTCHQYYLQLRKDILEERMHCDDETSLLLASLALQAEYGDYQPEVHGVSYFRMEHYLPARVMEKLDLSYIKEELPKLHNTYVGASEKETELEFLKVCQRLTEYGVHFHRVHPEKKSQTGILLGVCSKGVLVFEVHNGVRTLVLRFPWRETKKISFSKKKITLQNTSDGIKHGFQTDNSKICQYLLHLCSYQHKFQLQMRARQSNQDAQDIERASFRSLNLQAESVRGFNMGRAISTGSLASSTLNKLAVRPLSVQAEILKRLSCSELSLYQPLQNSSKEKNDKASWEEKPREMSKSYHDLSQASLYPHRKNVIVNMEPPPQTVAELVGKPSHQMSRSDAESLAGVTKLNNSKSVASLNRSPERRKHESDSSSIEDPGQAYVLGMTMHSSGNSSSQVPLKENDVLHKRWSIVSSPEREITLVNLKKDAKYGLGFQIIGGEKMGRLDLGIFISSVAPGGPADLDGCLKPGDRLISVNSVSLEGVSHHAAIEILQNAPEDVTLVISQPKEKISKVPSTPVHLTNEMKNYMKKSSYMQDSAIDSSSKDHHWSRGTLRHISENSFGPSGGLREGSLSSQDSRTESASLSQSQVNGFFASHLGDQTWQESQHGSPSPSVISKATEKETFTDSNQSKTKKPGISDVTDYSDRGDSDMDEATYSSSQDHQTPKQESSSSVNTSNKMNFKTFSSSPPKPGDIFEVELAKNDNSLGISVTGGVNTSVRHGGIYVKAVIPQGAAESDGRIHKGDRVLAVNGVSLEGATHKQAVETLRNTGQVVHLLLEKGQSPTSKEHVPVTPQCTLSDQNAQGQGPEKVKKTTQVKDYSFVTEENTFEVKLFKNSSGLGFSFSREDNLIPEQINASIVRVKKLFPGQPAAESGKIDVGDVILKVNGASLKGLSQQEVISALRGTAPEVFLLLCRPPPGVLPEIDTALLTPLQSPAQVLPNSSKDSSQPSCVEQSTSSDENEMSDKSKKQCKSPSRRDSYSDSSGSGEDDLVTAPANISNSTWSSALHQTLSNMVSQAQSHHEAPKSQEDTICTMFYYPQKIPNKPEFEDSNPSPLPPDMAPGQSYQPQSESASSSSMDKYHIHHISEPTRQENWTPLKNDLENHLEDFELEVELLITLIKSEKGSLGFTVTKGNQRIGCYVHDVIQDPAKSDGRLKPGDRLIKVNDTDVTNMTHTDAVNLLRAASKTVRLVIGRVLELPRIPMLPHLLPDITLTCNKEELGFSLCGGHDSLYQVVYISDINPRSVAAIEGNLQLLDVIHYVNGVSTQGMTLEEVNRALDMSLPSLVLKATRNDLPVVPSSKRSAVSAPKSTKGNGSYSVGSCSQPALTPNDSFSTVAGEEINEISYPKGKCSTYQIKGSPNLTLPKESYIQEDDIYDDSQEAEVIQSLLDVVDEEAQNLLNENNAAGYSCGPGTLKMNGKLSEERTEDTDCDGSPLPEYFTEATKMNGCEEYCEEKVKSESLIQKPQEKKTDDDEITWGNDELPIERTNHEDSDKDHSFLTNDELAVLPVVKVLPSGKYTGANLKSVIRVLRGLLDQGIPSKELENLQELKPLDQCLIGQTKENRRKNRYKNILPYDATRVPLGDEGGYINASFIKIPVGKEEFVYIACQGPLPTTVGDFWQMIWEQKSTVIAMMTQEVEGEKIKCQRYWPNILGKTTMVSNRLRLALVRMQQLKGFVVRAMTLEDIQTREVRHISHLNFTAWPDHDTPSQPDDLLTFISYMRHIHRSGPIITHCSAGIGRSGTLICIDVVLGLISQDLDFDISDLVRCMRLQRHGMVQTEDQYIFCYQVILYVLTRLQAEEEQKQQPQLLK
VHR, sequence (P51452 whole entry): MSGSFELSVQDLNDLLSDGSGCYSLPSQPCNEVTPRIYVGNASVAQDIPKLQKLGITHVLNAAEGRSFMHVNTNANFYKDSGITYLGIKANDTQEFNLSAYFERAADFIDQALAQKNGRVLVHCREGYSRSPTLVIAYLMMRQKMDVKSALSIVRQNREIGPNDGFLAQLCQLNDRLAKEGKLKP
PTP1B, sequence (P18031 whole entry): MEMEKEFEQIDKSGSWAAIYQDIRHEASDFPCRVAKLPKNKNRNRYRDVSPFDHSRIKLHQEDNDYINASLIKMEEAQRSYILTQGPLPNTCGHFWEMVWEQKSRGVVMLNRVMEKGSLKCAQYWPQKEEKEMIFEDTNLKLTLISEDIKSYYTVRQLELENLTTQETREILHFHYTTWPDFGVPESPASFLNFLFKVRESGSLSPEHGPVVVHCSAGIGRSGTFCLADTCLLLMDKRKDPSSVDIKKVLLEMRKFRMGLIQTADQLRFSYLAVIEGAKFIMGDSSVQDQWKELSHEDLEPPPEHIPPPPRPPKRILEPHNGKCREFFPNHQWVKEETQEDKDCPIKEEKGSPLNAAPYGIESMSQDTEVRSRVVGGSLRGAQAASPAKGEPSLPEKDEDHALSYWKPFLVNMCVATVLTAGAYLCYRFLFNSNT
HePTP, sequence (P35236 whole entry): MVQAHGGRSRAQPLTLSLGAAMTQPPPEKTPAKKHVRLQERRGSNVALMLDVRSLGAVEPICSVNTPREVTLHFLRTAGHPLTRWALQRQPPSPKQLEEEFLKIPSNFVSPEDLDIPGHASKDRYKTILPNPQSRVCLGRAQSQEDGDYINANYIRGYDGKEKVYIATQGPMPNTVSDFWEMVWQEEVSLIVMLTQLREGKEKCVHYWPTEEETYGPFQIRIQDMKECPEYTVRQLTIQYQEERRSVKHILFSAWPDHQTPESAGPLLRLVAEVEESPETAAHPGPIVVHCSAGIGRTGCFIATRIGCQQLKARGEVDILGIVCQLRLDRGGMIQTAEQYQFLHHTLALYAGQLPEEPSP
LYP, sequence (Q9Y2R2 whole entry): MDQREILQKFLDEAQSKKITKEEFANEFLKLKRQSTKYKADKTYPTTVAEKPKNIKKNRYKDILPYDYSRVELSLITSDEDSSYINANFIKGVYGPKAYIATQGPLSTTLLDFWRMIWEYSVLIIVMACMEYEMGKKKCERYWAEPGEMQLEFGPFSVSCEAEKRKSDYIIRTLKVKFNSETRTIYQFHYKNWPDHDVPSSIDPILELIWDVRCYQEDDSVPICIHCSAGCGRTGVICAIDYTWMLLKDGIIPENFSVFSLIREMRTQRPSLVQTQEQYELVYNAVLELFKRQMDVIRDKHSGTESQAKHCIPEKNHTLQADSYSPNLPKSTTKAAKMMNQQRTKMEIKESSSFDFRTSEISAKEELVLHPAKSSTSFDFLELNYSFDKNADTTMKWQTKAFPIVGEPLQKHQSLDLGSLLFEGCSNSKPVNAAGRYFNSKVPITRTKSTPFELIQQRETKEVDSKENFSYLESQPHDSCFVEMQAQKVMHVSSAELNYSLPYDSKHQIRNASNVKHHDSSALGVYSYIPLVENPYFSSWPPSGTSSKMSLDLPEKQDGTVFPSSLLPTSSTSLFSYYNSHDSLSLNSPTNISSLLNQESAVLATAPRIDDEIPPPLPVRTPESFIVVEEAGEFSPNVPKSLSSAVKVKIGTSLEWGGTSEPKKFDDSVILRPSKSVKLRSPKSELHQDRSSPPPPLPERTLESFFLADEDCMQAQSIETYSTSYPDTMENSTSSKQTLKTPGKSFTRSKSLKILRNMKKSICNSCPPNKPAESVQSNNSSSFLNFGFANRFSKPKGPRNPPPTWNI
TcPTP, sequence (P17706 whole entry): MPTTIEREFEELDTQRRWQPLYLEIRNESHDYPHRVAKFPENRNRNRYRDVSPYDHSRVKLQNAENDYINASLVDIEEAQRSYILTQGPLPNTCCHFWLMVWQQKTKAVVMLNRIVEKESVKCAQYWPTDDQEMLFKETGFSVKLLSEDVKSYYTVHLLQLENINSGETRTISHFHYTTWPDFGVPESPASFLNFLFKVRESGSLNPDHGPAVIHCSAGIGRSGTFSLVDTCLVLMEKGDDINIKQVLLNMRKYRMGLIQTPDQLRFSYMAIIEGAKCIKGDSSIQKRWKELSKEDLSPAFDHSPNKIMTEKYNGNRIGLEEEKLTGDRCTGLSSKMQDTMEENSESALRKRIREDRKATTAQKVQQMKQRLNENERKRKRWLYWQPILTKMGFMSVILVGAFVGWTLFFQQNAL

On to `Cc1c(Br)cc(NC(=O)CS(=O)(=O)O)cc1Br`, for which the “activity in standard MIC assays” value in assay [1] is on record as “devoid of activity”. In [2], the “anti-Mtb activity in Mtb-infected macrophages” value is listed as “markedly decrease bacterial load”. For `O=C(Nc1ccccc1)C(=O)Nc1ccc(NC(=O)C(c2ccccc2)S(=O)(=O)O)cc1` (stereo not drawn) [Compound 7, 2-oxo-2-((4-(2-oxo-2-(phenylamino)acetamido)phenyl)amino)-1-phenylethanesulfonic acid], in assay [3] (50 μM), the “inhibitory activity against SHP2 at 50 μM” value is reported as “no inhibition”. The “EGF-mediated ERK1/2 phosphorylation in H1975 cells” value in [4] is on record as “no appreciable effect; also recorded: failed to block EGF-mediated ERK1/2 phosphorylation”. As for `O=C(O)c1cc2c(C#Cc3cccc(C(F)(F)F)c3)c(-c3ccccc3)oc2cc1O` [Compound L01Z08], the “anti-Mtb activity in Mtb-infected macrophages” value in [2] is reported as “potent anti-Mtb activity”. The term IC50 denotes the concentration needed to halve the response being measured. Low readings indicate greater potency in that assay, high ones weaker potency in that assay. Turning to `O=C(Nc1ccc2nc(C(F)(F)F)[nH]c2c1)C(c1ccccc1)S(=O)(=O)O` (stereo not drawn) [Compound L319M54], the IC50 in assay [5] is more than 200 µM. For the compound `O=C(Nc1ccc(-n2ccnc2)cc1)C(c1ccccc1)S(=O)(=O)O` (stereo not drawn) [Compound L319M63], the IC50 in assay [6] is more than 100 µM; in assay [7] it was more than 100 µM; in [8] it was more than 100 µM; in [9], more than 100 µM; in assay [3] (pNPP at Km, pH 7.0, 25° C.) it was more than 100 µM; in [10] it was more than 100 µM. Also, the IC50 in assay [11], in assay [12] and in assay [13] was more than 100 µM each time. In the case of `O=C(Nc1ccc(N2CCOCC2)cc1)C(c1ccccc1)S(=O)(=O)O` (stereo not drawn) [Compound L319M68], the “mode of mPTPA inhibition” value in assay [14] is “competitive inhibitor”. In assay [5], this compound had an IC50 of more than 200 µM. On to `O=C(Nc1nnc(-c2ccccc2)s1)C(c1ccccc1)S(=O)(=O)O` (stereo not drawn) [Compound L319M73-2], for which the “specificity for Laforin over LMPTP” value in [15] (ratio of IC50) was found to be 8 fold. As for `O=C(Nc1cnc2ccccc2c1)C(c1ccccc1)S(=O)(=O)O` (stereo not drawn) [Compound L319M88], the half-inhibitory concentration (IC50) in assay [5] was more than 200 µM. Consider `O=C(Nc1nc2ccc(O[N+](=O)[O-])cc2s1)C(c1ccccc1)S(=O)(=O)O` (stereo not drawn) [Compound L319N15-07], for which, in assay [15], the “inhibition against Laforin at 100 μM” value is recorded as “no detectable inhibition”.

In assay [5], `O=C(Nc1nc2ccccc2s1)C(c1ccccc1)S(=O)(=O)O` (stereo not drawn) [Compound L319N15] gave an IC50 of more than 200 µM. In the case of `O=C(C(c1ccccc1)S(=O)(=O)O)N1CCC(c2ccc(Cl)c(Cl)c2)CC1` (stereo not drawn) [Compound L319N47], the “increase in potency against mPTPB compared to SPAA” value in [16] is recorded as 2000 fold. With `O=C(CS(=O)(=O)O)Nc1nc2ccc([N+](=O)[O-])cc2s1` [Compound L335N15-07], the “inhibition against Laforin at 100 μM” value in [15] is listed as “no detectable inhibition”.

With `O=C(CS(=O)(=O)O)Nc1nc2ccccc2s1` [Compound L335N15], the “Akt phosphorylation (Ser473) in HepG2 cells” value in assay [17] is “increased”. For the same compound, in [17] (relative to DMSO), the “IR Tyr1162/1163 phosphorylation in HepG2 cells” value is reported as “enhanced IR Tyr1162/1163 phosphorylation in a dose-dependent fashion”. `NC(=O)C(c1ccccc1)S(=O)(=O)O` (stereo not drawn) [SPAA, α-sulfophenylacetic amide, reference compound]: the IC50 in [16] was found to be 200 µM. In the case of `C=CS(=O)(=O)c1ccccc1` [phenyl vinyl sulfone], the “covalent adduct formation with SHP2” value in [18] was “formed a covalent adduct”.
